Assay results as given in US20040180943A1, “Oxazolone analogs as amyloid aggregation inhibitors and for the treatment of alzheimer's disease and disorders related to amyloidosis” (priority 2002, published 2004).
Several values for one entry are separate records, joined by “and”; a condition that tells them apart may be missing. Equal entries are not always repeated. Where two headings read alike, the source gives them in different places.

Key:
Format in all cases: biochemical
[1] = target: T1, Aβ (1-40) (Homo sapiens, UniProt P05067); experiment: BASST (Beta-Amyloid Self-Seeding, ThioflavinT), inhibitors of self-seeded amyloid fibril growth; details: 30 μM soluble Aβ(1-40), pH 7.5, 37° C. for 3 to 5 hours, thioflavin T fluorescence
T1 construct: Soluble Aβ (1-40)—2.2 mg/mL in deionized H2O
Experimental: 2. BASST (Beta-Amyloid Self-Seeding, ThioflavinT)
An assay for inhibitors of self-seeded arnyloid fibril growth
(§1) Assay Buffer—50 mM sodium phosphate, pH 7.5, 100 mM NaCl, 0.02% NaN3, 1 M urea (filter and store at 4° C.)
Soluble Aβ (1-40)—2.2 mg/mL in deionized H2O (is stored in aliquots at −20° C.; is kept on ice when thawed) will self-seed after 1 week storage. Typically, the solution is stored until no lag phase is seen in the assay.
Final assay conditions: 30 μM soluble Aβ(1-40) in deionized water in assay buffer. Compound to be tested is dissolved in DMSO, typically 5 to 50 mM stock, such that the final concentration of DMSO is <1% v/v in the assay.
Assay: Reaction mixture for 50 assays (on ice) is comprised of 1 μL of soluble Aβ(1-40)+13.5 μL assay buffer per assay. The following are the amounts of the components of the reaction mixture that result in each of the 50 assay wells.
1) The reaction mix above is prepared by mixing the components and storing on ice.
2) 14.5 μL of reaction mixture is pipetted into each of 50 wells of a polystyrene U-bottom, 96-well microtiter plate (Corning 25881-96) on ice.
(§2) 3) 1.7 μL of diluted compound to be tested is added to each well in a column of eight, including solvent control. Serial 3-fold dilutions from 1 mM (100 μM final) in assay buffer−urea=7 dilutions+zero. Each 96-well plate can therefore accommodate 11 samples+1 Congo Red control (0.039-5 μM final in 2-fold steps).
4) The plate with aluminum film is sealed and incubated for 10 minutes on ice.
(§3) 5) The temperature is raised to 37° C. and incubated for 3 to 5 hours (depending on the lot of the peptide).
6) The aluminum film is removed and 250 μL/well of 5 μM thioflavin T (ThT) [T-3516, Sigma-Aldrich] is added in 50 mM glycine-NaOH, pH 8.5. Fluorescence is read on a plate reader (ex=440 nm/20 nm; em=485 nm/20 nm) within 5 minutes.

[2] = target: T2, Aβ(1-40) peptide (Homo sapiens, UniProt P05067); experiment: BASSR (Beta-Amyloid Self-Seeding Radioassay), inhibitors of self-seeded amyloid fibril growth; details: 30 μM soluble Aβ(1-40) + 125I-labeled Aβ(1-40), pH 7.5, 37° C. for 3 to 5 hours, filtration
T2 construct: Soluble Aβ(1-40) peptide (Bachem, Torrance, Calif.); purchased Bachem, Torrance, Calif
Experimental: 1. BASSR (Beta-Amyloid Self-Seeding Radioassay)
An assay for inhibitors of self-seeded amyloid fibril growth
as §1
Soluble Aβ(1-40) peptide (Bachem, Torrance, Calif.)—2.2 mg/mL in deionized H2O (is stored in aliquots at −20° C.; is kept on ice when thawed) will self-seed after 1 week storage. Typically, the solution is stored until no lag phase is seen in the assay.
^125I-labeled Aβ(1-40)—150K to 350K cpm/μL in 100% acetonitrile—0.1% trifluoroacetic acid (TFA)—1% β-mercaptoethanol (aliquots stored at −20° C.). ^125I-labeled Aβ(1-40) is made in accordance with the procedure set forth by LeVine H., III, in Neurobiol. Aging, 1995;16:755, which is hereby incorporated by reference, or this reagent may be purchased from Amersham, Arlington Heights, Ill.
Final assay conditions: 30 μM soluble Aβ(1-40) in deionized water in assay buffer+20 K to 50 K cpm ^125I-labeled Aβ(1-40) per assay. Compound to be tested is dissolved in dimethylsulfoxide (DMSO), typically 5 to 50 mM stock, such that the final concentration of DMSO is <1% v/v in the assay.
Assay: Reaction mixture for 50 assays (on ice) is comprised of 0.1 to 0.2 μL of ^125I-labeled A^125I-labeled Aβ(1-40)+1 μL of soluble Aβ(1-40)+13.5 μL assay buffer per assay. The following are the amounts of the components of the reaction mixture sufficient for 50 assay wells.
1) The reaction mixture of above is prepared by mixing components and storing on ice.
2) 14.5 μL of the reaction mixture is pipetted into each of 50 wells on a polypropylene U-bottom 96-well microtiter plate on ice (Costar 3794).
as §2
4) The plate with aluminum film (Beckman 538619) is sealed and incubated for 10 minutes on ice.
as §3
6) The aluminum film is removed and 200 μL/well of ice cold assay buffer with urea is added. The radiolabeled fibrils are collected by vacuum filtration through 0.2 μm pore size GVWP filters in 96-well plates (Millipore MAGV N22, Bedford, Mass.). The radioactivity of the filters is determined by using standard methods well-known to those skilled in the art.

[3] = target: T3, Aβ (1-42) (Homo sapiens, UniProt P05067); experiment: Batym Assay (Aβ(1-42) aggregation, Thioflavin T fluorescence); details: Aβ 1-42 final concentration 100 μM, PBS pH 7.4, 37° C. for 1 day, ThT fluorescence
T3 construct: Required Aβ (1-42) (California Peptide) is dried from its hexafluoroisopropanol (HFIP) stock solution; purchased California Peptide
Experimental: Required Aβ (1-42) (California Peptide) is dried from its hexafluoroisopropanol (HFIP) stock solution. The Aβ (1-42) is dissolved in DMSO and then mixed with phosphate buffered saline (PBS) (pH 7.4). The mixed Aβ (1-42) solution is filtered with a GVWP 0.22 μm syringe filter (Millipore, Bedford, Mass.). The compound to be tested in DMSO (50 times concentrate) is put into each well (0.5 μL/well) of a 96-well plate. The Aβ(1-42) solution is added into each well (25 μL/well). The plate is centrifuged at 1000 g for 5 minutes and incubated at 37° C. for 1 day (Aβ 1-42; final concentration 100 μM).
After incubation Thioflavin T (ThT) (30 μM) solution in glycine-NaOH buffer (pH 8.5, 50 mM) is added into each well (250 μL/well), fluorescence is measured (ex=440/20 nm, em=485/20 nm) using a fluorescence plate reader. The inhibitory activity is calculated as the reduction of fluorescence with the following formula:
Inhibition(%)={(F(Aβ)−F(Aβ+compound)}/{F(Aβ)−F(solvent−compound)}×100.
The IC50s are calculated by a curve-fitting program using the equation given below. The data is obtained from two different experiments in triplicate.
x=concentration of tested compound (M),

T3 sequence (P05067 672-713): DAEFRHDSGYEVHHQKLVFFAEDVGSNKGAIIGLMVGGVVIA
T1 sequence (P05067 672-711): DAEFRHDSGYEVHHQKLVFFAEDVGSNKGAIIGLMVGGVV
T2 sequence (P05067 672-711): as above

| Structure (SMILES) | IC50 ([1]; read-out: BASST (IC50 = μM)) [µM] | IC50 ([2]; read-out: BASSR (IC50 = μM)) | IC50 [3] | IC50 ([1]; BASST (IC50 = μM)) [µM] | IC50 ([2]; BASSR (IC50 = μM)) [µM] |
| --- | --- | --- | --- | --- | --- |
| O=C1OC(c2ccccc2)=N/C1=C\c1ccccc1 [compound 1, 4-Benzylidene-2-phenyl-4H-oxazol-5-one] | > 100 | > 100 µM | – | – | – |
| O=C1OC(c2ccccc2)=N/C1=C\c1ccc2c(c1)OCO2 [compound 2, 4-1,3-Benzodioxol-5-ylmethylene-2-phenyl-4H-oxazol-5-one] | – | 21 µM | > 100 µM | – | – |
| COc1c(/C=C2\N=C(c3ccccc3)OC2=O)cc([N+](=O)[O-])cc1[N+](=O)[O-] [compound 3, 4-(2-Methoxy-3,5-dinitro-benzylidene)-2-phenyl-4H-oxazol-5-one] | – | – | – | 7 | > 100 |
| COc1ccc(/C=C2\N=C(c3ccccc3)OC2=O)cc1OC [compound 4, 5(4H)-Oxazolone,4-[(3,4-dimethoxyphenyl)methylene]-2-phenyl-] | > 100 | 7 µM and 8 µM | > 100 µM | – | – |
| COc1ccc(C2=N/C(=C\c3ccccc3)C(=O)O2)cc1 [compound 5, 4-Benzylidene-2-(4-methoxy-phenyl)-4H-oxazol-5-one] | – | 16 µM | – | – | – |
| CN(C)c1ccc(/C=C2\N=C(c3ccccc3)OC2=O)c2ccccc12 [compound 6, 4-(4-Dimethylamino-naphthalen-1-ylmethylene)-2-phenyl-4H-oxazol-5-one] | 2.6 | > 100 µM | 14.5 µM | – | – |
| CCCN(CCC)c1ccc(/C=C2/N=C(c3ccccc3)OC2=O)cc1 [compound 7, 4-(4-Dipropylamino-benzylidene)-2-phenyl-4H-oxazol-5-one] | 8 | > 100 µM | 2.42 µM and 2.36 µM | – | – |

Continued, in another order:

| IC50 ([1]; read-out: BASST (IC50 = μM)) [µM] | IC50 ([2]; read-out: BASSR (IC50 = μM)) | IC50 [3] | Structure (SMILES) | IC50 ([1]; BASST (IC50 = μM)) [µM] | IC50 ([2]; BASSR (IC50 = μM)) [µM] |
| --- | --- | --- | --- | --- | --- |
| 7 | > 100 µM | – | COc1cccc(/C=C2\N=C(c3ccccc3)OC2=O)c1 [compound 8, 4-(3-Methoxy-benzylidene)-2-phenyl-4H-oxazol-5-one] | – | – |
| 12 | > 100 µM | – | COc1cccc(/C=C2\N=C(c3ccc([N+](=O)[O-])cc3)OC2=O)c1OC [compound 9, 4-(2,3-Dimethoxy-benzylidene)-2-(4-nitro-phenyl)-4H-oxazol-5-one] | – | – |
| 15 | > 100 µM | – | COc1ccc(/C=C2\N=C(c3ccccc3I)OC2=O)cc1OC [compound 10, 4-(3,4-Dimethoxy-benzylidene)-2-(2-iodo-phenyl)-4H-oxazol-5-one] | – | – |
| 30 | 21 µM | – | O=C1OC(c2ccccc2)=N/C1=C\c1ccc(Cl)c(Cl)c1 [compound 11, 4-(3,4-Dichloro-benzylidene)-2-phenyl-4H-oxazol-5-one] | – | – |
| – | > 100 µM | – | Cc1ccc(/C=C2\N=C(c3ccccc3)OC2=O)cc1C [compound 12, 4-(3,4-Dimethyl-benzylidene)-2-phenyl-4H-oxazol-5-one] | – | – |
| 90 | 70 µM | – | O=C1OC(c2ccc([N+](=O)[O-])cc2)=N/C1=C\c1ccc(Cl)c(Cl)c1 [compound 13, 4-(3,4-Dichloro-benzylidene)-2-(4-nitro-phenyl)-4H-oxazol-5-one] | – | – |
| > 100 | > 100 µM | – | O=C1OC(c2ccccc2)=N/C1=C\c1ccc(F)c(C(F)(F)F)c1 [compound 14, 4-(4-Fluoro-3-trifluoromethyl-benzylidene)-2-phenyl-4H-oxazol-5-one] | – | – |
